In patent US9981946B2, “Pyridine-substituted 2-aminopyridine protein kinase inhibitors” (CHIA TAI TIANQING PHARMACEUTICAL GROUP CO., LTD, priority 2014, dated 2018):

Test system: human non-small cell lung carcinoma NCI-H2228 xenografts
Assay: Therapeutic effect on NCI-H2228 xenografts in nude mice
Assay type: in vivo
Details: D0-13 once a day; for Average tumor volume D0: D0 baseline at grouping
Protocol: The following experimental method was used: Nude mice was inoculated subcutaneously with human non-small cell lung carcinoma NCI-H2228 cells, the mice were randomly grouped (D0) and administered until the tumor grew to 80-200 mm^3. Measuring the tumor volume, weighing the mice, and recording the data twice a week. Tumor volume (V) was calculated as:
[…], wherein a and b represented length and width respectively.
T/C(%)=(T-T0)/(C-C0)×100, wherein T, C respectively represented the tumor volume at the end of the experiment; T0, C0 respectively represented the tumor volume at the start of the experiment.
When tumor regression was observed, T/C(%)=(T-T0)/T0×100, wherein T was the tumor volume at the end of the experiment; T0 was the tumor volume at the start of the experiment.
In the table: the solvent group (distilled water containing 0.1% Tween-80) was a control group, the compound of the treatment groups was formulated with distilled water containing 0.1% Tween-80.
D0-20 represented administrating once a day from day 0 (D0) for consecutive 21 days; D0-13 represented administrating once a day from day 0 (D0) for consecutive 14 days.
P value was obtained from student's t test compared with the control group.
n was the number of mice, for the control group, the number of test mice n was 12, and n was 6 for the treatment group.

In the case of `COc1cc(N2CCNC[C@@H]2C)ncc1-c1cnc(N)c(O[C@H](C)c2c(Cl)ccc(F)c2Cl)c1` [compound of formula I, 5-((R)-1-(2,6-dichloro-3-fluorophenyl)ethoxy)-4′-methoxy-6′-((S)-2-methylpiperazin-1-yl)-3,3′-bipyridin-6-amine], the “Average tumor volume D0” value (12.5 mg/kg PO) is reported as 134.3 mm^3, the “% T/C D21” value (12.5 mg/kg PO, D21) is reported as 22% and the “Average tumor volume D21” value (12.5 mg/kg PO, D21) is reported as 394.8 mm^3. For the same compound, the “% Inhibition rate D21” value (12.5 mg/kg PO, D21, 100-T/C(%)) was 78%, the “Average tumor volume D0” value (25 mg/kg PO) was 131.0 mm^3 and the “Average tumor volume D21” value (25 mg/kg PO, D21) was 21.7 mm^3. For the same compound, the “% T/C D21” value (25 mg/kg PO, D21, tumor regression, T/C=(T-T0)/T0×100) was −83%.
